How the values were obtained:
[1] = test system: Sweetpotato Whitefly Crawler (Bemisia tabaci) (BEMITA); assay: Bioassay on Sweetpotato Whitefly Crawler, foliar spray on infested cotton plants; format: in vivo; conditions: 200 ppm foliar spray on cotton, live nymphs counted after 8-9 days, read-out: BEMITA rating (% Mortality; Abbott corrected % control)
From the text: Example B Bioassays on Sweetpotato Whitefly Crawler (Bemisia tabaci) (BEMITA.)
Cotton plants grown in 3-inch pots, with 1 small (3-5 cm) true leaf, were used at test substrate. The plants were placed in a room with whitely adults. Adults were allowed to deposit eggs for 2-3 days. After a 2-3 day egg-laying period, plants were taken from the adult whitefly room. Adults were blown off leaves using a hand-held Devilbliss sprayer (23 psi). Plants with egg infestation (100-300 eggs per plant) were placed in a holding room for 5-6 days at 82° F. and 50% RH for egg hatch and crawler stage to develop. Four cotton plants were used for each treatment. Compounds (2 mg) were dissolved in 1 mL of acetone solvent, forming stock solutions of 2000 ppm. The stock solutions were diluted 10× with 0.025% Tween 20 in water to obtain a test solution at 200 ppm. A hand-held Devilbliss sprayer was used for spraying a solution to both sides of cotton leaf until runoff. Reference plants (solvent check) were sprayed with the diluent only. Treated plants were held in a holding room for 8-9 days at approximately 82° F. and 50% RH prior to grading. Evaluation was conducted by counting the number of live nymphs per plant under a microscope.

[2] = test system: Green Peach Aphid (Myzus persicae) (MYZUPE); assay: Bioassay on Green Peach Aphid (GPA), foliar spray on infested cabbage seedlings; format: in vivo; conditions: 72 h, 200 ppm foliar spray on cabbage, live aphids counted after three days, read-out: MYZUPE rating (% Mortality; Abbott corrected % control)
Experimental: Example A Bioassays on Green Peach Aphid (“GPA”) (Myzus persicae) (MYZUPE.)
Several molecules disclosed herein were tested against GPA using procedures described below.
Cabbage seedling grown in 3-in pots, with 2-3 small (3-5 cm) true leaves, were used as test substrate. The seedlings were infested with […] (wingless adult and nymph stages) one day prior to chemical application. Four pots with individual seedlings were used for each treatment. Test compounds (2 mg) were dissolved in 2 mL of acetone/MeOH (1:1) solvent, forming stock solutions of 1000 ppm test compound. The stock solutions were diluted 5× with 0.025% Tween 20 in water to obtain the solution at 200 ppm test compound. A hand-held aspirator-type sprayer was used for spraying a solution to both sides of the cabbage leaves until runoff. Reference plants (solvent check) were sprayed with the diluent only containing […] acetone/MeOH (1:1) solvent. Treated plants were held in a holding room for three days at approximately 25° C. and ambient relative humidity (RH) prior to grading. Evaluation was conducted by counting the number of live aphids per plant under a microscope. Percent Control was measured by using Abbott's correction formula (W. S. Abbott, “A Method of Computing the Effectiveness of an Insecticide” J. Econ. Entomol 18 (1925), pp. 265-267) as follows. Corrected % Control=100*(X−Y)/X […]

| SMILES | mortality at 200 ppm [1] | mortality at 200 ppm [2] |
| --- | --- | --- |
| CCOC(=O)C1CC(Cl)=NN1c1cccnc1 (stereo not shown) [Example Compound 10b, Ethyl 3-chloro-1-(pyridin-3-yl)-4,5-dihydro-1H-pyrazole-5-carboxylate] | 0 to 80% | 0 to 80% |
| CCOC(=O)C1CC(=O)NN1c1cccnc1 (stereo not shown) [Example Compound 10a, Ethyl 5-oxo-2-(pyridin-3-yl)pyrazolidine-3-carboxylate] | 0 to 80% | 0 to 80% |

— patent US10005758B2, “Process for the preparation of 3-(3-chloro-1H-pyrazol-1-yl)pyridine” (Dow AgroSciences LLC, priority 2014, dated 2018)
